# Test system: IL-6 (THP-1 human monocyte cell line)
# Test: IL-6 inhibition in LPS-stimulated THP-1 cells (HTRF)
# Assay type: cell-based
# Details: LPS 500 ng/mL; for EC50: 22 hours, IL6 HTRF; for inhibition at 10 µM: given for EC50 >10 μM, read-out: percent inhibition at 10 μM
# Description: Human monocyte cell line (THP-1 cells; Catalog # TIB-202, ATCC, Manassas, Va.) were cultured in Roswell Park Memorial Institute (RPMI) 1640 Medium (Catalog #21870-100, Buffalo, N.Y.) with 1% L-glutamine, 1% HEPES, 1% Sodium Pyruvate, 2% Sodium Bicarbonate supplemented with 100 units/mL penicillin, 50 μg/mL streptomycin, 2-mercaptoethanol (0.05 mM) [basal medium] and 10% fetal bovine serum (Catalog #16140089, Life Technologies, Carlsbad, Calif.) at 37° C. and 5% CO2.
# THP-1 cells were cultured in basal media with 1% FBS for 24 hours before the start of the assay. Each compound was dissolved in DMSO as a 10 mM stock and used to prepare compound source plates. Serial dilution (1:3, 10-point dose-response curves starting from […]) and compound transfer was performed using the ECHO 550 (Labcyte, Sunnyvale, Calif.) into 384-well white low volume assay plates (Greiner Bio-One) with appropriate DMSO backfill for a final DMSO concentration of 0.1%. THP-1 cells were plated at 5000 cells/well in the 384-well plates and incubated at 37° C. for 2 h. 500 ng/mL of LPS was added after 2 hours and cells were incubated for another 22 hours at 37° C. Plates were spun in a centrifuge for 1 minute at 10,000 rpm and a mixture of anti-IL6 XL665, and anti-IL6 Cryptate diluted in reconstitution buffer (Cisbio Inc.) was added to each well. Following incubation for 3 hrs at room temperature, Homogeneous Time-Resolved Fluorescence (HTRF) was measured using the Envision (Perkin Elmer) at 665 nm and […]. The ratio of fluorescence at 665 nm to 620 nm was used as a readout for IL6 quantification. All samples were processed in duplicate. Readings were normalized to DMSO treated cells and normalized activities were utilized for EC50 calculations using the dose-response log (inhibitor) vs. response—variable slope (four parameters) nonlinear regression feature available in GraphPad Prism 5.0 (or Dotmatics). For EC50 of >10 μM, the percent inhibition at 10 μM is provided.
EC50,Compound,inhibition at 10 µM
> 10 µM,"CCC(=O)Nc1cncc(-c2cnc3[nH]nc(-c4cc5c(-c6cccc(F)c6)ccnc5[nH]4)c3c2)c1 [Compound 1, N-(5-(3-(4-(3-Fluorophenyl)-1H-pyrrolo[2,3-b]pyridin-2-yl)-1H-pyrazolo [3,4-b]pyridin-5-yl)pyridin-3-yl)propionamide]",23.8%
> 10 µM,"Fc1cccc(-c2ccnc3[nH]c(-c4n[nH]c5ncc(-c6cccnc6)cc45)cc23)c1 [Compound 4, 3-(4-(3-Fluorophenyl)-1H-pyrrolo[2,3-b]pyridin-2-yl)-5-(pyridin-3-yl)-1H-pyrazolo[3,4-b]pyridine]",22.6%
> 10 µM,"O=C(Nc1cncc(-c2cnc3[nH]nc(-c4cc5c(-c6cccc(F)c6)ccnc5[nH]4)c3c2)c1)c1ccccc1 [Compound 11, N-(5-(3-(4-(3-Fluorophenyl)-1H-pyrrolo[2,3-b]pyridin-2-yl)-1H-pyrazolo [3,4-b]pyridin-5-yl)pyridin-3-yl)benzamide]",14.1%
> 10 µM,"Fc1cccc(-c2ccnc3[nH]c(-c4n[nH]c5ncc(-c6ccncc6)cc45)cc23)c1 [Compound 18, 3-(4-(3-Fluorophenyl)-1H-pyrrolo[2,3-b]pyridin-2-yl)-5-(pyridin-4-yl)-1H-pyrazolo[3,4-b]pyridine]",37.2%
2.13 µM,"O=C(Nc1cncc(-c2cnc3[nH]nc(-c4cc5c(-c6cccc(F)c6)ccnc5[nH]4)c3c2)c1)C1CC1 [Compound 20, N-(5-(3-(4-(3-Fluorophenyl)-1H-pyrrolo[2,3-b]pyridin-2-yl)-1H-pyrazolo [3,4-b]pyridin-5-yl)pyridin-3-yl)cyclopropanecarboxamide]",
> 10 µM,"Fc1cccc(-c2ccnc3[nH]c(-c4n[nH]c5ncc(-c6ccccn6)cc45)cc23)c1 [Compound 28, 3-(4-(3-Fluorophenyl)-1H-pyrrolo[2,3-b]pyridin-2-yl)-5-(pyridin-2-yl)-1H-pyrazolo[3,4-b]pyridine]",49.5%
> 10 µM,"CC(C)CC(=O)Nc1cncc(-c2cnc3[nH]nc(-c4cc5c(-c6ccc(F)cc6)ccnc5[nH]4)c3c2)c1 [Compound 30, N-(5-(3-(4-(4-Fluorophenyl)-1H-pyrrolo[2,3-b]pyridin-2-yl)-1H-pyrazolo [3,4-b]pyridin-5-yl)pyridin-3-yl)-3-methylbutanamide]",0%
> 10 µM,"Fc1ccc(-c2ccnc3[nH]c(-c4n[nH]c5ncc(-c6cncc(CN7CCCCC7)c6)cc45)cc23)cc1 [Compound 43, 3-(4-(4-Fluorophenyl)-1H-pyrrolo[2,3-b]pyridin-2-yl)-5-(5-(piperidin-1-ylmethyl)pyridin-3-yl)-1H-pyrazolo[3,4-b]pyridine]",36.7%
> 10 µM,"O=C(Nc1cncc(-c2cnc3[nH]nc(-c4cc5c(-c6ccc(F)cc6)ccnc5[nH]4)c3c2)c1)C1CCCCC1 [Compound 51, N-(5-(3-(4-(4-Fluorophenyl)-1H-pyrrolo[2,3-b]pyridin-2-yl)-1H-pyrazolo [3,4-b]pyridin-5-yl)pyridin-3-yl)cyclohexanecarboxamide]",19.4%
> 10 µM,"Fc1ccc(-c2ccnc3[nH]c(-c4n[nH]c5ncc(-c6cncc(CN7CCC(F)(F)C7)c6)cc45)cc23)cc1 [Compound 54, 5-(5-((3,3-Difluoropyrrolidin-1-yl)methyl)pyridin-3-yl)-3-(4-(4-fluorophenyl)-1H-pyrrolo[2,3-b]pyridin-2-yl)-1H-pyrazolo[3,4-b]pyridine]",32.3%
> 10 µM,"Fc1ccc(-c2ccnc3[nH]c(-c4n[nH]c5ncc(-c6cncnc6)cc45)cc23)cc1 [Compound 55, 3-(4-(4-Fluorophenyl)-1H-pyrrolo[2,3-b]pyridin-2-yl)-5-(pyrimidin-5-yl)-1H-pyrazolo[3,4-b]pyridine]",32.2%
> 10 µM,"CC(C)C(=O)Nc1cncc(-c2cnc3[nH]nc(-c4cc5c(-c6ccccc6F)ccnc5[nH]4)c3c2)c1 [Compound 65, N-(5-(3-(4-(2-Fluorophenyl)-1H-pyrrolo[2,3-b]pyridin-2-yl)-1H-pyrazolo [3,4-b]pyridin-5-yl)pyridin-3-yl)isobutyramide]",25.6%
> 10 µM,"CC(C)(C)CC(=O)Nc1cncc(-c2cnc3[nH]nc(-c4cc5c(-c6ccccc6F)ccnc5[nH]4)c3c2)c1 [Compound 72, N-(5-(3-(4-(2-Fluorophenyl)-1H-pyrrolo[2,3-b]pyridin-2-yl)-1H-pyrazolo [3,4-b]pyridin-5-yl)pyridin-3-yl)-3,3-dimethylbutanamide]",38.1%
0.627 µM,"O=C(Nc1cncc(-c2cnc3[nH]nc(-c4cc5c(-c6ccccc6F)ccnc5[nH]4)c3c2)c1)C1CCCC1 [Compound 78, N-(5-(3-(4-(2-Fluorophenyl)-1H-pyrrolo[2,3-b]pyridin-2-yl)-1H-pyrazolo [3,4-b]pyridin-5-yl)pyridin-3-yl)cyclopentanecarboxamide]",
> 10 µM,"c1cncc(-c2cnc3[nH]nc(-c4cc5c(-c6cccnc6)ccnc5[nH]4)c3c2)c1 [Compound 88, 5-(Pyridin-3-yl)-3-(4-(pyridin-3-yl)-1H-pyrrolo[2,3-b]pyridin-2-yl)-1H-pyrazolo[3,4-b]pyridine]",22.6%
> 10 µM,"CC(C)C(=O)Nc1cncc(-c2cnc3[nH]nc(-c4cc5c(-c6cccnc6)ccnc5[nH]4)c3c2)c1 [Compound 93, N-(5-(3-(4-(Pyridin-3-yl)-1H-pyrrolo[2,3-b]pyridin-2-yl)-1H-pyrazolo[3,4-b]pyridin-5-yl)pyridin-3-yl)isobutyramide]",26.2%
0.094 µM,"CC(C)Nc1cncc(-c2cnc3[nH]nc(-c4cc5c(-c6cccnc6)ccnc5[nH]4)c3c2)c1 [Compound 96, N-Isopropyl-5-(3-(4-(pyridin-3-yl)-1H-pyrrolo[2,3-b]pyridin-2-yl)-1H-pyrazolo[3,4-b]pyridin-5-yl)pyridin-3-amine]",
> 10 µM,"O=C(Nc1cncc(-c2cnc3[nH]nc(-c4cc5c(-c6cccnc6)ccnc5[nH]4)c3c2)c1)C1CC1 [Compound 104, N-(5-(3-(4-(Pyridin-3-yl)-1H-pyrrolo[2,3-b]pyridin-2-yl)-1H-pyrazolo[3,4-b]pyridin-5-yl)pyridin-3-yl)cyclopropanecarboxamide]",35.8%
> 10 µM,"Cc1ccncc1-c1cnc2[nH]nc(-c3cc4c(-c5ccncc5)ccnc4[nH]3)c2c1 [Compound 117, 5-(4-Methylpyridin-3-yl)-3-(4-(pyridin-4-yl)-1H-pyrrolo[2,3-b]pyridin-2-yl)-1H-pyrazolo[3,4-b]pyridine]",17.1%
> 10 µM,"O=C(Nc1cncc(-c2cnc3[nH]nc(-c4cc5c(-c6ccncc6)ccnc5[nH]4)c3c2)c1)c1ccccc1 [Compound 123, N-(5-(3-(4-(Pyridin-4-yl)-1H-pyrrolo[2,3-b]pyridin-2-yl)-1H-pyrazolo[3,4-b]pyridin-5-yl)pyridin-3-yl)benzamide]",15.1%
> 10 µM,"c1cc(-c2cnc3[nH]nc(-c4cc5c(-c6ccncc6)ccnc5[nH]4)c3c2)ccn1 [Compound 130, 5-(Pyridin-4-yl)-3-(4-(pyridin-4-yl)-1H-pyrrolo[2,3-b]pyridin-2-yl)-1H-pyrazolo[3,4-b]pyridine]",45.9%
> 10 µM,"O=C(Nc1cncc(-c2cnc3[nH]nc(-c4cc5c(-c6ccncc6)ccnc5[nH]4)c3c2)c1)C1CCCCC1 [Compound 135, N-(5-(3-(4-(Pyridin-4-yl)-1H-pyrrolo[2,3-b]pyridin-2-yl)-1H-pyrazolo[3,4-b]pyridin-5-yl)pyridin-3-yl)cyclohexanecarboxamide]",37.7%
> 10 µM,"c1ccc(-c2cnc3[nH]nc(-c4cc5c(-c6ccncc6)ccnc5[nH]4)c3c2)nc1 [Compound 140, 5-(Pyridin-2-yl)-3-(4-(pyridin-4-yl)-1H-pyrrolo[2,3-b]pyridin-2-yl)-1H-pyrazolo[3,4-b]pyridine]",24.5%
1.2 µM,"CC(C)(C)C(=O)Nc1cncc(-c2cnc3[nH]nc(-c4cc5c(N6CCCCC6)ccnc5[nH]4)c3c2)c1 [Compound 176, N-(5-(3-(4-(Piperidin-1-yl)-1H-pyrrolo[2,3-b]pyridin-2-yl)-1H-pyrazolo[3,4-b]pyridin-5-yl)pyridin-3-yl)pivalamide]",
0.463 µM,"c1cc(N2CCCCC2)c2cc(-c3n[nH]c4ncc(-c5cncc(CN6CCCC6)c5)cc34)[nH]c2n1 [Compound 182, 3-(4-(Piperidin-1-yl)-1H-pyrrolo[2,3-b]pyridin-2-yl)-5-(5-(pyrrolidin-1-ylmethyl)pyridin-3-yl)-1H-pyrazolo[3,4-b]pyridine]",
